The results in this text go back to ChEMBL document CHEMBL1268893, “A practical deuterium-free NMR method for the rapid determination of 1-octanol/water partition coefficients of pharmaceutical agents” (Bioorg Med Chem Lett, 2010).

Each structure is given as a SMILES string.

The nature of data set [1]: Octanol-water partition coefficient, log P of the compound by deuterium-free NMR method. It is filed as physicochemical.
Data set [2] in a line: Octanol-water partition coefficient, log P of the compound. It is filed as physicochemical.
The nature of data set [3]: Octanol-water partition coefficient, log P of the compound at pH 7.0.
A short description of data set [4]: Octanol-water partition coefficient, log P of the compound after partitioning between 0.1 M NaOH and 1-octanol by deuterium-free NMR method. It counts as physicochemical. The note with it: 1-octanol/0.1 M NaOH.

Usually logP stands for a log measure of how a compound divides between an organic and an aqueous phase. Turning to `CC(=O)Nc1ccc(O)cc1` [ACETAMINOPHEN], the logP came to 0.29 in data set [1] and 0.33 in data set [2]. The molecule `CC(=O)Oc1ccccc1C(=O)O` [ASPIRIN] yielded a logP in data set [1] of 1.15. As to `CC[C@H]1OC(=O)[C@H](C)[C@@H](O[C@H]2C[C@@](C)(OC)[C@@H](O)[C@H](C)O2)[C@H](C)[C@@H](O[C@@H]2O[C@H](C)C[C@H](N(C)C)[C@H]2O)[C@](C)(O)C[C@@H](C)C(=O)[C@H](C)[C@@H](O)[C@]1(C)O` [ERYTHROMYCIN], the logP in data set [1] was 2.01; in data set [2], 2.54.

One may read the logD as the decadic logarithm of the distribution of all forms, ionised or not, between an organic phase and buffer at a given pH. A lower logD goes with a more hydrophilic compound. In turn, `O=C1CN(/N=C/c2ccc([N+](=O)[O-])o2)C(=O)N1` [NITROFURANTOIN] had a logP in data set [1] of -0.36. The logD in data set [3] is -0.68. Turning to `CCOc1ccc(NC(C)=O)cc1` [PHENACETIN], the logP in data set [1] was 1.45. Take `CCN(CC)CCOC(=O)c1ccc(N)cc1` [PROCAINE]: the logP came out at 0.88 in data set [2] and 0.9 in data set [4].
